Experiment [1] relates to histone-mediated RBC aggregation. In words: Histone-mediated erythrocyte aggregation (flow cytometry, scanning EM). It counts as cell-based, human. As for the experimental part:
(§1) Human erythrocytes (RBC) were incubated for 1 h at 37° C. alone (‘Saline’ control) or in the presence of histones (400 μg ml^−1) with or without mCBS (200 μg ml^−1). a, Percentage of RBC aggregation measured by flow cytometry based on forward (FSC) and side (SSC) scatter parameters and an appropriate gating strategy to discriminate aggregated from normal (non-aggregated) RBC. b, Scanning electron micrographs depicting level of RBC aggregation at low and high magnification following the three treatments depicted in (a). c, Concentration dependent inhibition of histone-mediated RBC aggregation by mCBS and MTS, in this case RBC aggregation being calculated by flow cytometry as fold increase in RBC auto-fluorescence relative to RBC in the absence of histones. The fold increase values also provide an estimate of the number of RBC in each aggregate. d, Retention of RBC in an artificial spleen that measures RBC deformability. RBC were incubated with increasing concentrations of histones for 1 h and, at the highest concentration used (400 μg ml^−1), also incubated with either mCBS or MTS (100 and 200 μg ml^−1), prior to passage through the artificial spleen. Data are mean±s.e.m. (n=3 biological replicates). ***P<0.001, ****P<0.0001 (one way ANOVA with Dunnett's multiple comparisons test).
In vitro erythrocyte microscopy, aggregation, fragility and deformability assays. […] J Biol Chem 289, 19531-19537 (2014)). Similarly, erythrocyte fragility induced by histones, in the presence or absence of inhibitors, was quantified using a sheer stress assay that we developed recently (Kordbacheh, F., O'Meara, C. H., Coupland, L. A., Lelliott, P. M. & Parish, C. R. Extracellular histones induce erythrocyte fragility and anemia. Blood 130, 2884-2888 (2017)). Finally, the reduced deformability of erythrocytes in the presence of histones and the effect of inhibitors on this process was assessed by measuring the passage of erythrocytes through an artificial human spleen (Kordbacheh, F., O'Meara, C. H., Coupland, L. A., Lelliott, P. M. & Parish, C. R. Extracellular histones induce erythrocyte fragility and anemia. Blood 130, 2884-2888 (2017); and Deplaine, G. et al. The sensing of poorly deformable red blood cells by the human spleen can be mimicked in vitro. Blood 117, e88-95 (2011)).

Experiment [2] deals with histone-induced erythrocyte rigidity. Nature of the experiment: Erythrocyte deformability, passage through artificial spleen. It counts as cell-based, human. Particulars: histones 400 μg ml^−1, compounds 100 and 200 μg ml^−1, FIG. 3d. As for the experimental part:
as §1, with “RBC were incubated with increasing concentrations of histones for 1 h and, at the highest concentration used (400 μg ml^−1), also incubated with either mCBS or MTS (100 and 200 μg ml^−1), prior to passage through the artificial spleen. Data are mean±s.e.m. (n=3 biological replicates). ***P<0.001, ****P<0.0001 (one way ANOVA with Dunnett's multiple comparisons test).” left out
In vitro erythrocyte microscopy, aggregation, fragility and deformability assays. […] Similarly, erythrocyte fragility induced by histones, in the presence or absence of inhibitors, was quantified using a sheer stress assay that we developed recently (Kordbacheh, F., O'Meara, C. H., Coupland, L. A., Lelliott, P. M. & Parish, C. R. Extracellular histones induce erythrocyte fragility and anemia. Blood 130, 2884-2888 (2017)). […]

For `O=S(=O)(O)OC[C@H]1O[C@H](O[C@H]2[C@H](OS(=O)(=O)O)[C@@H](OS(=O)(=O)O)C(OS(=O)(=O)O)O[C@@H]2COS(=O)(=O)O)[C@H](OS(=O)(=O)O)[C@@H](OS(=O)(=O)O)[C@@H]1O[C@H]1O[C@H](COS(=O)(=O)O)[C@@H](OS(=O)(=O)O)[C@H](OS(=O)(=O)O)[C@H]1OS(=O)(=O)O` (stereo partly drawn) [MTS, maltotriose per-O-sulfate], the “Effectiveness of MTS relative to mCBS in preventing RBC aggregation” value in experiment [1] (FIG. 3c) is listed as about 2 fold. Moreover, the “Prevention of histone-mediated RBC aggregation (auto-fluorescence)” value in experiment [1] (histones 400 μg ml^−1, FIG. 3c) was “prevented aggregation in a concentration dependent manner”. For the same compound, the “Ability of erythrocytes to passage through an artificial spleen” value in experiment [2] was “totally restored”.
